Measurements from patent US20230416307A1, “[…] PEPTIDES FOR ENHANCING VIRAL PRODUCTION” (Synvivia, Inc., priority 2022, published 2023).
Ends that are not written are not given here.

How the values were obtained:
AAV2-GFP = test: Transduction efficiency (TU:VG ratio) of AAV2-GFP packaged in cells expressing a CP; assay type: cell-based, adeno-associated virus; conditions: for transduction efficiency of AAV2-GFP produced in the presence of CP: FIG. 23, CP plasmid 0.3 ng to 100 ng, versus control without CP
Text: AAV2-GFP were harvested and assayed for biological and physical titer as described in FIG. 20
FIG. 24. […] This figure depicts the raw flow cytometry data used to determine the biological titer of AAV samples. This is an example of the data that was used to determine the biological titers in FIG. 23. The X-axis of each graph represents the forward light scattering (FSC) from flow cytometry. The Y-axis represents the GFP intensity of each cell. A 1000-fold dilution of AAV2-GFP particles produced either in the presence (A) or absence (B) of cyclic peptide were used to transduce HEK293 cells. A 1000-fold dilution of the preparation was used (e.g., without physical titer normalization) to ensure a direct, batch-to-batch comparison of the impact of cyclic peptide on viral packaging performance.
As used herein, the term “transduction efficiency” refers to the effectiveness (efficiency) of viral particles in delivering their genetic payload to the target cells. This efficiency may be represented by the transducing units to vector genomes ratio (TU:VG). Viral formulations with enhanced transduction efficiency can achieve greater numbers of DNA delivery events for the same number of DNA-containing viral particles. […] Enhanced transduction efficiency may be achieved by optimizing the cellular environment for viral production, leading to viral particles with improved capsid structure, viral particle biochemistry, or viral particle assembly. Increasing transduction efficiency refers to improvements in the TU:VG ratio, which encompasses both infectivity and biological titer.
• 1. A 100-mm cell culture dish was reseeded with 4.0×10^6 Hek293T cells in high glucose DMEM culture medium supplemented with 10% FBS. • 2. […] A jetOPTIMUS DNA transfection reagent i used during the transfection protocol (from Polyplus). • 3. 12-16 hours after transfection, media was replaced with low glucose DMEM culture medium supplemented with 1% FBS, 1×Glutamax, 10 mM HEPES, and 0.075% sodium bicarbonate. • 4. Cells and media were harvested 4 days after transfection and frozen in 1 mL aliquots. • 5. Frozen aliquots were thawed and lysed using AAVMax Lysis Reagent (Life Technologies, USA, A50520). 100 uL of AAVMax Lysis buffer was added to 900 uL of cell and media. Mixture was incubated for 2 hours with rotating. Debris was pelleted at 5,000xg for 15 minutes. AAV containing supernatant was collected. • 6. The physical and biological titers of the harvested AAV samples were determined by qPCR and biological viral titer measurement as described in Example 1.
Full, but non-functional viral particles represent a major manufacturing challenge for AAV gene therapies. At present, there is no process capable of purifying the functional viral particles from the full, but non-functional fraction.

Lentivirus [1] = test: Lentivirus particle (physical) titer by Lenti-X GoStix Plus after packaging with a CP generator plasmid; assay type: cell-based; conditions: FIG. 25; generator plasmid 0.5, 5, 50 ng; normalised to six no-CP controls
Experimental: (§1) Cyclic peptides are used herein to improve viral titer and transduction efficiency during lentiviral production. Lentivirus was produced using Takara Bio lentivirus packaging kit either with (left panels) or without (right panels; bars labeled CTRL) a cyclic peptide generator plasmid. The cyclic peptides produced by different amounts (e.g., 0.5 ng, 5 ng and 50 ng) of corresponding generator plasmids were CSSLT (SEQ ID NO: 37), CGSTKS (SEQ ID NO: 43), CKYEE (SEQ ID NO: 40), CPYTD (SEQ ID NO: 44), CPLQVP (SEQ ID NO: 45). 5 ng plasmid experiment for CGSTKS (SEQ ID NO: 43) failed and is not shown. The virus was collected, and particle titers were enumerated using Takara Bio Lenti-X GoStix Plus quantitative lentiviral titer test. The biological titer was determined by transducing fresh HEK293 cells with the various lentiviral preparations (e.g., packaged with or without a cyclic peptide). The fold difference in particle titer and transduction unit titer is calculated by normalizing to the average of six control lentiviral transductions from packaging runs without cyclic peptide. The control (CTRL) conditions illustrate negligible noise.
This example illustrates methodologies for Cyclic peptide-enhanced lentiviral vector production. • 1) Cells were seeded at 4-5×10^6 cells per 10-cm plate, 24 hours prior to transfection, to achieve 80-90% confluence at the time of transfection. • 2) 7.0 μg of lentiviral vector plasmid DNA was diluted in sterile water to a volume of 600 μl along with a cyclic peptide generator that expresses a cyclic peptide. • 3) Titration of cyclic peptide plasmid DNA concentrations, from 0.5 ng to 50 ng, was used in this Example. However, the amount of required plasmid DNA depends on many factors, including the specific cyclic peptide being expressed, the cyclic peptide generator (e.g. more efficient cyclic peptide generators may need less DNA), and promoter strength (the pCMV promoter driving strong expression is used in this Example). • 4) Between 4-8 control conditions (depending on number of experimental conditions) were also prepared that are identical to the above, except that no cyclic peptide plasmid was added. • 5) This DNA was added to a tube of Lenti-X Packaging Single Shots and vortexed to mix. • 6) The mixture was incubated for 10 minutes at room temperature to allow the formation of nanoparticle complexes, then briefly centrifuged. • 7) The entire 600 μl of nanoparticle complex solution was added dropwise to the packaging cells, which were then rocked gently to mix. • 8) Lentiviral packaging. […] They were centrifuged or filtered to remove cellular debris, using a filter of cellulose acetate or polysulfone, not nitrocellulose. • 10) Virus production was verified and can be quantified using Lenti-X GoStix™ Plus or any other standard methodology. Then, the virus can be used to transduce target cells or stored at −80° C. • 11) Next, for each viral production condition (e.g., different cyclic peptide packaging conditions, CP dosages, and controls), a three order of magnitude serial dilution at 10-fold dilution steps was performed. • 12) All viral samples were then transduced, harboring a GFP transgene, into fresh HEK293 cells. • 13) After 3 days, the transduced cells were collected, and analyzed them by flow cytometry (see FIG. 26). • 14) Finally, the biological titer (flow cytometry) and physical titer (GoStix) were normalized to the no-CP control to determine the fold improvements in both viral titer and infectiousness. […]

Lentivirus [2] = test: Lentivirus biological titer (flow cytometry of transduced HEK293 cells) after packaging with a CP generator plasmid; assay type: cell-based; conditions: for lentiviral biological (transduction unit) titer, fold difference to control: FIG. 25, generator plasmid 0.5, 5, 50 ng, HEK293 cells
Experimental: as §1
FIG. 26. Exemplary representative flow cytometry raw data illustrating that when cyclic peptide CGSTKS (SEQ ID NO: 43) is present during lentiviral production, the biological titer increases by over 8-fold compared to when the cyclic peptide is absent. This figure depicts the raw flow cytometry data used to determine the biological titer of lentiviral samples. This is an example of the data that was used to determine the lentiviral biological titers in FIG. 25. The X-axis of each graph represents the forward light scattering (FSC) from flow cytometry. The Y-axis represents the GFP intensity of each cell. A 100-fold dilution of Lentivirus with a GFP payload produced either in the presence (A) or absence (B) of cyclic peptide were used to transduce HEK293 cells. A 100-fold dilution of the preparation was used (e.g., without physical titer normalization) to ensure a direct, batch-to-batch comparison of the impact of the cyclic peptide on viral packaging performance. • Part A—Flow cytometry raw data (with minor forward and side scatter gating to remove irrelevant particles) of HEK293 transduced with a lentiviral preparation produced in the presence of cyclic peptide CGSTKS (SEQ ID NO: 43) generated from a plasmid constructed transduced into packaging cells at 0.5 ng. • Part B—Flow cytometry raw data (with minor forward and side scatter gating to remove irrelevant particles) of HEK293 transduced with a lentiviral preparation produced without cyclic peptide.
This example illustrates methodologies for Cyclic peptide-enhanced lentiviral vector production. • 1) Cells were seeded at 4-5×10^6 cells per 10-cm plate, 24 hours prior to transfection, to achieve 80-90% confluence at the time of transfection. • 2) 7.0 μg of lentiviral vector plasmid DNA was diluted in sterile water to a volume of 600 μl along with a cyclic peptide generator that expresses a cyclic peptide. • 3) Titration of cyclic peptide plasmid DNA concentrations, from 0.5 ng to 50 ng, was used in this Example. […]

CCRPH: engineered cyclic peptide, printed as SEQ ID NO: 37
transduction efficiency of AAV2-GFP produced in the presence of CP (AAV2-GFP): improvements in transduction efficiency

CGSTKS: engineered cyclic peptide, SEQ ID NO: 43 (also: cyclic, closure not given here)
lentiviral physical (particle) titer, fold difference to control (Lentivirus [1]): unexpected degree of improvement
lentiviral biological (transduction unit) titer, fold difference to control (Lentivirus [2]): unexpected degree of improvement
increase of lentiviral biological titer (Lentivirus [2]; FIG. 26, generator plasmid at 0.5 ng, 100-fold dilution on HEK293 cells, versus no CP): over 8 fold

CKYEE: engineered cyclic peptide, SEQ ID NO: 40 (also: cyclic, closure not given here)
transduction efficiency of AAV2-GFP produced in the presence of CP (AAV2-GFP): improvements in transduction efficiency
lentiviral physical (particle) titer, fold difference to control (Lentivirus [1]): unexpected degree of improvement
lentiviral biological (transduction unit) titer, fold difference to control (Lentivirus [2]): unexpected degree of improvement

CPLQVP: engineered cyclic peptide, SEQ ID NO: 45 (also: cyclic, closure not given here)
lentiviral physical (particle) titer, fold difference to control (Lentivirus [1]): unexpected degree of improvement
lentiviral biological (transduction unit) titer, fold difference to control (Lentivirus [2]): unexpected degree of improvement

CPYTD: engineered cyclic peptide, SEQ ID NO: 44 (also: cyclic, closure not given here)
lentiviral physical (particle) titer, fold difference to control (Lentivirus [1]): unexpected degree of improvement
lentiviral biological (transduction unit) titer, fold difference to control (Lentivirus [2]): unexpected degree of improvement

CQVFQL: engineered cyclic peptide, SEQ ID NO: 42 (also: cyclic, closure not given here)
transduction efficiency of AAV2-GFP produced in the presence of CP (AAV2-GFP): improvements in transduction efficiency

CRVSY: engineered cyclic peptide, SEQ ID NO: 41 (also: cyclic, closure not given here)
transduction efficiency of AAV2-GFP produced in the presence of CP (AAV2-GFP): improvements in transduction efficiency

CSSLT: engineered cyclic peptide, SEQ ID NO: 37 (also: cyclic, closure not given here)
transduction efficiency of AAV2-GFP produced in the presence of CP (AAV2-GFP): improvements in transduction efficiency
lentiviral physical (particle) titer, fold difference to control (Lentivirus [1]): unexpected degree of improvement
lentiviral biological (transduction unit) titer, fold difference to control (Lentivirus [2]): unexpected degree of improvement

CTHKVS: engineered cyclic peptide, SEQ ID NO: 38 (also: cyclic, closure not given here)
transduction efficiency of AAV2-GFP produced in the presence of CP (AAV2-GFP): improvements in transduction efficiency

CYNHAR: engineered cyclic peptide, SEQ ID NO: 35, corresponds to generator plasmid T2851-8 (cyclic; Cyclic peptide that was found to increase or decrease AAV viral titer in a dose-responsive manner.)
increased transduction efficiency (TU:VG ratio) (AAV2-GFP; FIG. 21 legend, data not shown): ~2.4 ×
